Here are results for five compounds from patent US11572399B2, “Long-acting GIP peptide analogues” (University of Copenhagen, priority 2017, dated 2023).

A short description of data set [1]: Elimination half-life (T1/2) estimated in pigs, subcutaneous, RIA. Type of data set: in vivo. As to conditions: pig. The procedure: LYH/LYD strain pigs or mini-pigs were housed in the animal facility at the Faculty of Health and Medical Sciences.
A pig was subcutaneously administered one of the lipidated GIP(3-30)NH2 analogs (compound AT117) (1-10 nmol/kg, total volume 2-6 mL) after which 10-18 blood samples were collected before and up to 57 hours post subcutaneous administration) from a central venous catheter. The catheter was flushed with saline and heparin between samples. Blood was collected into cold EDTA tubes, centrifuged and plasma was kept at −20° C. pending analyses. When experiments are completed, the animals will be killed.
Concentrations of the lipidated GIP(3-30)NH2 or GIP(5-30)NH2 analogues in blood samples from pigs were analysed by RIA. Analogues' immunoreactivity was determined using antiserum Ab95234, Ab95235, Ab95236, a polyclonal in-house antibody raised in rabbits specific for either the mid region of GIP(1-30)NH2 or amidated C-terminus of GIP(3-30)NH2.

In data set [2] the target is T1, human GIP receptor (Homo sapiens, UniProt P48546).
T1 construct: host or cells: COS-7, transient transfection (calcium phosphate), cDNA in pCMV-Script
T1 sequence (P48546 22-466): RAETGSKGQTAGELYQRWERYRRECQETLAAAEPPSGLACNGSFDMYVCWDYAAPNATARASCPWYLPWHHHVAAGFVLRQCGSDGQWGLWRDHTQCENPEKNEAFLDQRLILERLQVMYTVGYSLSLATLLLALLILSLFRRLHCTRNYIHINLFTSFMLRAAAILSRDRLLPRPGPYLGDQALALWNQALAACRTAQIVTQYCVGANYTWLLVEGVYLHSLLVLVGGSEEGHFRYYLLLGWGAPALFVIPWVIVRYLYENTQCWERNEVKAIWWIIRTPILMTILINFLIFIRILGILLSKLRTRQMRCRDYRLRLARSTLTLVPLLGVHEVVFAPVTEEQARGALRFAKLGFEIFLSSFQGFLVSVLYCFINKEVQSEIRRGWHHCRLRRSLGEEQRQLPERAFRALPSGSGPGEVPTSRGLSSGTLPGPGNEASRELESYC
As to the kind of experiment: cAMP accumulation assay, agonism (ligand alone). As to conditions: Table 1; for Emax: COS-7, intrinsic cAMP activity, COS-7 cells; for EC50: given as log EC50 (negative sign), read-out: cAMP agonism EC50 (log) (converted). Type of data set: cell-based. (Changes in cAMP serve as a functional read-out for many G protein-coupled receptors.)

Data set [3] addresses T1, human GIP receptor. Kind of data set: cAMP accumulation assay, antagonism of a GIP-mediated cAMP response (50-80% of max). Format: cell-based. The conditions noted are these: for IC50: transiently transfected COS-7 cells, Table 1 and text, read-out: cAMP antagonism nM (IC50, antagonistic potency); for Fold change of IC50 versus GIP(5-30)NH2: fold change of IC50 from GIP(5-30)NH2. The procedure:
The day after, the cells were washed twice with Hepes buffered saline (HBS) buffer and incubated with HBS and 1 mM 3-isobutyl-1-methylxanthine (IBMX) for 30 min at 37° C. […] The HitHunter™ cAMP XS assay (DiscoveRx) was carried out according to the manufacturer's instructions.

Data set [4] concerns the target T1, human GIP receptor. Kind of data set: 125I-human GIP competition binding assay, in the presence and absence of 2% HSA.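 On all read-outs here: nonspecific binding taken as radioligand bound to untransfected cells, IC50 obtained from nonlinear regression fits.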 The conditions noted are these: for Fold change HSA (2%)/Casein (0.1%): IC50 (plus HSA)/IC50 (minus HSA); for Ki: absence of HSA; for Binding (+/−HSA) Fold: fold change +HSA/−HSA.
Description: Transient transfection of the COS-7 cells for cAMP accumulation and competition binding was performed using the calcium phosphate precipitation method with the addition of chloroquine^46-47.
Transient transfected COS-7 cells expressing the human GIP receptor were seeded in clear 96-well plates the day after transfection using a number of cells/well that obtained 5-10% specific binding of the added radioactive ligand. The following day, cells were assayed by competition binding for 3 h at 4° C. using 15-40 pM 125 I-human GIP as well as increasing concentrations unlabeled ligand in 50 mM Hepes buffer (pH 7.2) in the presence and absence of 2% HSA. After incubation, the cells were washed twice in ice-cold binding buffer (+/−2% HSA) and lysed using 200 mM NaOH with 1% SDS for 30 min. Nonspecific binding was determined as the binding of radioactive ligand to untransfected cells.
IC50, EC50, and Ki values were determined by nonlinear regression. […] Ki values were based on the formula for one class of binding sites in homologous competition binding studies and the Cheng Prussoffs formula, respectively (DeBlasi et al., 1989). To determine the HSA binding potential, the fold change in affinity (as determined by IC50) was calculated as IC50 (plus HSA)/IC50 (minus HSA).
[5] abbreviates: heterologous competition binding, transiently transfected COS-7 cells expressing the human GIP receptor, read-out: Binding.
The mark [6] stands for this setting: heterologous competition binding, transiently transfected COS-7 cells expressing the human GIP receptor, log value of the nM column, read-out: Binding log (converted).

pIC50: −log10 of the molar value. “And” between values parts separate entries of the source, which are not always exact repeats. Identical values can stand only once. Peptide text beside a SMILES is read from it. * marks the point of attachment. C16 diacid = O=C(O)CCCCCCCCCCCCCCC(=O)*; Palmitoyl = CCCCCCCCCCCCCCCC(=O)*

On to `CCCCCCCCCCCCCCCC(=O)NCCCC[C@H](NC(=O)[C@@H](NC(=O)[C@H](CCCCN)NC(=O)[C@H](CC(=O)O)NC(=O)[C@H](CCSC)NC(=O)[C@H](C)NC(=O)[C@@H](NC(=O)[C@H](CO)NC(=O)[C@H](Cc1ccc(O)cc1)NC(=O)[C@H](CC(=O)O)NC(=O)[C@H](CO)NC(=O)[C@@H](NC(=O)[C@H](Cc1ccccc1)NC(=O)[C@@H](NC(=O)CNC(=O)[C@@H](N)CCC(=O)O)[C@@H](C)O)[C@@H](C)CC)[C@@H](C)CC)[C@@H](C)CC)C(=O)N[C@@H](CCC(N)=O)C(=O)N[C@@H](CCC(N)=O)C(=O)N[C@@H](CC(=O)O)C(=O)N[C@@H](Cc1ccccc1)C(=O)N[C@H](C(=O)N[C@@H](CC(N)=O)C(=O)N[C@@H](Cc1c[nH]c2ccccc12)C(=O)N[C@@H](CC(C)C)C(=O)N[C@@H](CC(C)C)C(=O)N[C@@H](C)C(=O)N[C@@H](CCC(N)=O)C(=O)N[C@@H](CCCCN)C(N)=O)C(C)C` [AT117, [hGIP(3-30)NH2[H18K]-C16/18]] (H-EGTFISDYSIAMDKIK(Palmitoyl)QQDFVNWLLAQK-NH2; N-terminus assumed), for which the half-life (commonly the time needed for the level to fall by half in the phase considered) in data set [1] (plasma, sc, pigs, subcutaneous 1-10 nmol/kg) is 8 h. For the same compound, in data set [1] (subcutaneous), the “T½” value is 8 h. Also, the Emax (commonly the maximal effect, on the per cent scale that the assay sets) at human GIP receptor [2] came out at 0%. Moreover, on human GIP receptor [3] (fold vs GIP(3-30)NH2, Table 3b), the “cAMP - antagonisme fold (paired)” value is on record as 2.3 fold. Also, the IC50 was 15 nM on human GIP receptor [3]; 110 nM at human GIP receptor [4] (0.1% casein, no HSA, Table 3b, read-out: Binding logIC50 0.1% casein (converted)); 1730 nM at human GIP receptor [4] (2% HSA, Table 3b, read-out: Binding logIC50 2% HSA (converted)); 1730 nM at human GIP receptor [4] (binding in presence of 2% HSA, read-out: logIC50 2% HSA (converted)). In addition, the pIC50 was 6.53 at human GIP receptor [4] (Table 3b, initial data, read-out: Binding IC50) and 6.53 on human GIP receptor [4] (setting [5]). Besides, the “Binding fold (paired)” value at human GIP receptor [4] (fold decrease in affinity compared to GIP(3-30)NH2, Table 3b) is 12 fold. Further, at human GIP receptor [4] (presence vs absence of 2% HSA, proxy for albumin binding), the “Fold change in affinity, IC50 (plus HSA)/IC50 (minus HSA)” value is on record as 15.7 fold.
On human GIP receptor [2], `CC[C@H](C)[C@H](NC(=O)[C@H](CO)NC(=O)[C@H](Cc1ccc(O)cc1)NC(=O)[C@H](CC(=O)O)NC(=O)[C@H](CO)NC(=O)[C@@H](NC(=O)[C@H](Cc1ccccc1)NC(=O)[C@@H](N)[C@@H](C)O)[C@@H](C)CC)C(=O)N[C@@H](C)C(=O)N[C@@H](CCSC)C(=O)N[C@@H](CC(=O)O)C(=O)N[C@@H](CCCCN)C(=O)N[C@H](C(=O)N[C@@H](Cc1c[nH]cn1)C(=O)N[C@@H](CCC(N)=O)C(=O)N[C@@H](CCC(N)=O)C(=O)N[C@@H](CC(=O)O)C(=O)N[C@@H](Cc1ccccc1)C(=O)N[C@H](C(=O)N[C@@H](CC(N)=O)C(=O)N[C@@H](Cc1c[nH]c2ccccc12)C(=O)N[C@@H](CCCCNC(=O)CCCCCCCCCCCCCCC(=O)O)C(=O)N[C@@H](CC(C)C)C(=O)N[C@@H](C)C(=O)N[C@@H](CCC(N)=O)C(=O)N[C@@H](CCCCN)C(N)=O)C(C)C)[C@@H](C)CC` [AT186, [hGIP(5-30)NH2[L26K]-C16diacid/26]] (H-TFISDYSIAMDKIHQQDFVNWK(C16 diacid)LAQK-NH2; N-terminus assumed) returned an Emax of 0%. On human GIP receptor [3], the “Fold change of IC50 versus GIP(5-30)NH2” value is 2.6 and the IC50 is 79 nM. On human GIP receptor [4], the “Fold change HSA (2%)/Casein (0.1%)” value is listed as 3.8; the Ki (as a rule, the dissociation constant of the complex between target and ligand, obtained from inhibition or displacement) was 105 nM; the “Binding (+/−HSA) Fold” value is 7.9. Besides, the IC50 on human GIP receptor [4] (setting [6]) was 158 nM and 144 nM.
Consider `CC[C@H](C)[C@H](NC(=O)[C@H](CO)NC(=O)[C@H](Cc1ccc(O)cc1)NC(=O)[C@H](CC(=O)O)NC(=O)[C@H](CO)NC(=O)[C@@H](NC(=O)[C@H](Cc1ccccc1)NC(=O)[C@@H](N)[C@@H](C)O)[C@@H](C)CC)C(=O)N[C@@H](C)C(=O)N[C@@H](CCSC)C(=O)N[C@@H](CC(=O)O)C(=O)N[C@@H](CCCCN)C(=O)N[C@H](C(=O)N[C@@H](Cc1c[nH]cn1)C(=O)N[C@@H](CCC(N)=O)C(=O)N[C@@H](CCC(N)=O)C(=O)N[C@@H](CC(=O)O)C(=O)N[C@@H](Cc1ccccc1)C(=O)N[C@H](C(=O)N[C@@H](CC(N)=O)C(=O)N[C@@H](Cc1c[nH]c2ccccc12)C(=O)N[C@@H](CC(C)C)C(=O)N[C@@H](CCCCNC(=O)CCCCCCCCCCCCCCC(=O)O)C(=O)N[C@@H](C)C(=O)N[C@@H](CCC(N)=O)C(=O)N[C@@H](CCCCN)C(N)=O)C(C)C)[C@@H](C)CC` [AT187, [hGIP(5-30)NH2[L27K]-C16diacid/27]] (H-TFISDYSIAMDKIHQQDFVNWLK(C16 diacid)AQK-NH2; N-terminus assumed), for which, on human GIP receptor [2], the Emax stood at 25%; the EC50 (in general, the concentration giving half of the maximal effect) is 1000 nM and 2510 nM. On human GIP receptor [3], the “Fold change of IC50 versus GIP(5-30)NH2” value is 67.6 and the IC50 was 2380 nM. At human GIP receptor [4], the “Fold change HSA (2%)/Casein (0.1%)” value is listed as 4.7 and the “Binding (+/−HSA) Fold” value was determined as 18.2. Also, the pIC50 at human GIP receptor [4] (setting [5]) is 4.58.
Regarding `CC[C@H](C)[C@H](NC(=O)[C@H](CO)NC(=O)[C@H](Cc1ccc(O)cc1)NC(=O)[C@H](CC(=O)O)NC(=O)[C@H](CO)NC(=O)[C@@H](NC(=O)[C@H](Cc1ccccc1)NC(=O)[C@@H](N)[C@@H](C)O)[C@@H](C)CC)C(=O)N[C@@H](C)C(=O)N[C@@H](CCSC)C(=O)N[C@@H](CC(=O)O)C(=O)N[C@@H](CCCCN)C(=O)N[C@H](C(=O)N[C@@H](Cc1c[nH]cn1)C(=O)N[C@@H](CCC(N)=O)C(=O)N[C@@H](CCC(N)=O)C(=O)N[C@@H](CC(=O)O)C(=O)N[C@@H](Cc1ccccc1)C(=O)N[C@H](C(=O)N[C@@H](CC(N)=O)C(=O)N[C@@H](Cc1c[nH]c2ccccc12)C(=O)N[C@@H](CC(C)C)C(=O)N[C@@H](CC(C)C)C(=O)N[C@@H](CCCCNC(=O)CCCCCCCCCCCCCCC(=O)O)C(=O)N[C@@H](CCC(N)=O)C(=O)N[C@@H](CCCCN)C(N)=O)C(C)C)[C@@H](C)CC` [AT188, [hGIP(5-30)NH2[A28K]-C16diacid/28]] (H-TFISDYSIAMDKIHQQDFVNWLLK(C16 diacid)QK-NH2; N-terminus assumed), at human GIP receptor [2], the Emax came to 10%; the EC50 is 100 nM and 158 nM. For the same compound, at human GIP receptor [3], the “Fold change of IC50 versus GIP(5-30)NH2” value came out at 6.8 and the IC50 came to 152 nM. In addition, at human GIP receptor [4], the “Fold change HSA (2%)/Casein (0.1%)” value stood at 0.0, the Ki worked out at 144 nM and the “Binding (+/−HSA) Fold” value amounted to 3.2. The IC50 at human GIP receptor [4] (setting [6]) was 200 nM and 183 nM.
With `CC[C@H](C)[C@H](NC(=O)[C@H](CO)NC(=O)[C@H](Cc1ccc(O)cc1)NC(=O)[C@H](CC(=O)O)NC(=O)[C@H](CO)NC(=O)[C@@H](NC(=O)[C@H](Cc1ccccc1)NC(=O)[C@@H](N)[C@@H](C)O)[C@@H](C)CC)C(=O)N[C@@H](C)C(=O)N[C@@H](CCSC)C(=O)N[C@@H](CC(=O)O)C(=O)N[C@@H](CCCCN)C(=O)N[C@H](C(=O)N[C@@H](Cc1c[nH]cn1)C(=O)N[C@@H](CCC(N)=O)C(=O)N[C@@H](CCC(N)=O)C(=O)N[C@@H](CC(=O)O)C(=O)N[C@@H](Cc1ccccc1)C(=O)N[C@H](C(=O)N[C@@H](CC(N)=O)C(=O)N[C@@H](Cc1c[nH]c2ccccc12)C(=O)N[C@@H](CC(C)C)C(=O)N[C@@H](CC(C)C)C(=O)N[C@@H](C)C(=O)N[C@@H](CCCCNC(=O)CCCCCCCCCCCCCCC(=O)O)C(=O)N[C@@H](CCCCN)C(N)=O)C(C)C)[C@@H](C)CC` [AT189, [hGIP(5-30)NH2[Q29K]-C16diacid/29]] (H-TFISDYSIAMDKIHQQDFVNWLLAK(C16 diacid)K-NH2; N-terminus assumed), at human GIP receptor [2], the Emax stood at 12%; the EC50 was 100 nM and 79.4 nM. On human GIP receptor [3], the “Fold change of IC50 versus GIP(5-30)NH2” value is 3.0 and the IC50 is 79 nM. Moreover, on human GIP receptor [4], the “Fold change HSA (2%)/Casein (0.1%)” value is on record as 3.2 and the “Binding (+/−HSA) Fold” value was 3.2. In addition, on human GIP receptor [4] (setting [6]), the IC50 is 126 nM and 118 nM.
